Experimental data reported in US20030118597A1 (priority 2001, published 2003).

Assays:
[1] = test system: microsomal cyclooxygenase system; settings: animal models; cited from earlier work
[2] = preliminary data, animal model
[3] = test system: hypophyseal adrenal system; settings: cited from earlier work

Adolapin [Ado lapin]
strength relative to Indomethacine [1]: 70 times

Phospholipase A2
allergen component of the venom [2]: major allergen component

CC[C@H](C)[C@H](NC(=O)CN)C(=O)NCC(=O)N[C@@H](C)C(=O)N[C@H](C(=O)N[C@@H](CC(C)C)C(=O)N[C@@H](CCCCN)C(=O)N[C@H](C(=O)N[C@@H](CC(C)C)C(=O)N[C@H](C(=O)N[C@H](C(=O)NCC(=O)N[C@@H](CC(C)C)C(=O)N1CCC[C@H]1C(=O)N[C@@H](C)C(=O)N[C@@H](CC(C)C)C(=O)N[C@H](C(=O)N[C@@H](CO)C(=O)N[C@@H](Cc1c[nH]c2ccccc12)C(=O)N[C@H](C(=O)N[C@@H](CCCCN)C(=O)N[C@@H](CCCNC(=N)N)C(=O)N[C@@H](CCCCN)C(=O)N[C@@H](CCCNC(=N)N)C(=O)N[C@@H](CCC(N)=O)C(=O)N[C@@H](CCC(N)=O)C(N)=O)[C@@H](C)CC)[C@@H](C)CC)[C@@H](C)O)[C@@H](C)O)C(C)C)C(C)C [Melittin]
allergen component of the venom [2]: major allergen component | potency of released cortisol relative to hydrocortisone [3]: 100 times
